Measurements published in patent US20230017045A1, “PYRIDINE AND PYRIMIDINE CARBOXYLATE HERBICIDES AND METHODS OF USE THEREOF” (Dow AgroSciences LLC, priority 2017, published 2023).
Like-named read-outs stand apart in the source and are kept apart here.

Test system: test plant species
Assay: Post-emergent herbicidal activity test (greenhouse, foliar spray, visual growth reduction)
Format: in vivo
Conditions: post-emergence, 336 h, 140 g ai/ha
Outline: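 Scoring used a 0 to 100 percent visual scale of growth reduction against solvent-treated controls, read 14 d after spraying. Applications went onto plants at first or second true leaf stage, 187 L/ha, with crop oil concentrate and X-77 surfactant in the carrier. Post-treatment watering was by subirrigation to avoid wash-off.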

[1] = ALOMY: blackgrass (Alopecurus myosuroides), 14 days after application, read-out: Visual Growth Reduction (%) 14 Days After Application, ALOMY
[2] = AMARE: redroot pigweed (Amaranthus retroflexus), 14 days after application, read-out: Visual Growth Reduction (%) 14 Days After Application, AMARE
[3] = AVEFA: wild oat (Avena fatua), 14 days after application, read-out: Visual Growth Reduction (%) 14 Days After Application, AVEFA
[4] = CHEAL: lambsquarters (Chenopodium album), 14 days after application, read-out: Visual Growth Reduction (%) 14 Days After Application, CHEAL
[5] = CIRAR: canada thistle (Cirsium arvense), 14 days after application, read-out: Visual Growth Reduction (%) 14 Days After Application, CIRAR
[6] = CYPES: yellow nutsedge (Cyperus esculentus), 14 days after application, read-out: Visual Growth Reduction (%) 14 Days After Application, CYPES
[7] = DIGSA: crabgrass (Digitaria sanguinalis), 14 days after application, read-out: Visual Growth Reduction (%) 14 Days After Application, DIGSA
[8] = ECHCG: barnyardgrass (Echinochloa crus-galli), 14 days after application, read-out: Visual Growth Reduction (%) 14 Days After Application, ECHCG
[9] = IPOHE: ivy-leaf morning glory (Ipomoea hederacea), 14 days after application, read-out: Visual Growth Reduction (%) 14 Days After Application, IPOHE
[10] = KCHSC: kochia (Bassia scoparia), 14 days after application, read-out: Visual Growth Reduction (%) 14 Days After Application, KCHSC
[11] = ORYSA: rice (Oryza sativa), 14 days after application, read-out: Visual Growth Reduction (%) 14 Days After Application, ORYSA
[12] = SETFA: giant foxtail (Setaria faberi), 14 days after application, read-out: Visual Growth Reduction (%) 14 Days After Application, SETFA
[13] = SORVU: grain sorghum (Sorghum vulgare), 14 days after application, read-out: Visual Growth Reduction (%) 14 Days After Application, SORVU
[14] = STEME: common chickweed (Stellaria media), 14 days after application, read-out: Visual Growth Reduction (%) 14 Days After Application, STEME
[15] = TRZAS: wheat, spring (Triticum aestivum), 14 days after application, read-out: Visual Growth Reduction (%) 14 Days After Application, TRZAS
[16] = blackgrass (Alopecurus myosuroides), 14 Days After Application, read-out: Visual Growth Reduction (%) ALOMY
[17] = canada thistle (Cirsium arvense), 14 Days After Application, read-out: Visual Growth Reduction (%) CIRAR
[18] = crabgrass (Digitaria sanguinalis), 14 Days After Application, read-out: Visual Growth Reduction (%) DIGSA
[19] = lambsquarters (Chenopodium album), 14 Days After Application, read-out: Visual Growth Reduction (%) CHEAL
[20] = redroot pigweed (Amaranthus retroflexus), 14 Days After Application, read-out: Visual Growth Reduction (%) AMARE
[21] = wild oat (Avena fatua), 14 Days After Application, read-out: Visual Growth Reduction (%) AVEFA
[22] = yellow nutsedge (Cyperus esculentus), 14 Days After Application, read-out: Visual Growth Reduction (%) CYPES

| Compound | pest or weed control at 140 g/ha [1] | pest or weed control at 140 g/ha [2] | pest or weed control at 140 g/ha [3] | pest or weed control at 140 g/ha [4] | pest or weed control at 140 g/ha [5] | pest or weed control at 140 g/ha [6] | pest or weed control at 140 g/ha [7] | pest or weed control at 140 g/ha [8] | pest or weed control at 140 g/ha [9] | pest or weed control at 140 g/ha [10] | pest or weed control at 140 g/ha [11] | pest or weed control at 140 g/ha [12] | pest or weed control at 140 g/ha [13] | pest or weed control at 140 g/ha [14] | pest or weed control at 140 g/ha [15] | pest or weed control at 140 g/ha [16] | pest or weed control at 140 g/ha [17] | pest or weed control at 140 g/ha [18] | pest or weed control at 140 g/ha [19] | pest or weed control at 140 g/ha [20] | further results |
| --- | --- | --- | --- | --- | --- | --- | --- | --- | --- | --- | --- | --- | --- | --- | --- | --- | --- | --- | --- | --- | --- |
| O=C(O)c1nc(-c2ccc3occc3c2)c(F)cc1Cl [F198, 6-(Benzofuran-5-yl)-3-chloro-5-fluoropicolinic acid] | 0 to 29% | 0 to 29% | 0 to 29% | 0 to 29% | 0 to 29% | 0 to 29% | 0 to 29% | 0 to 29% | 60 to 74% | 0 to 29% | 0 to 29% | 0 to 29% | 0 to 29% | 0 to 29% | 0 to 29% |  |  |  |  |  |  |
| COC(=O)c1nc(-c2ccc(C#N)c(Cl)c2)ccc1Cl [F125, Methyl 3-chloro-6-(3-chloro-4-cyanophenyl) picolinate] | 0 to 29% | 0 to 29% | 0 to 29% | 45 to 59% | 0 to 29% | 0 to 29% | 0 to 29% | 0 to 29% | 30 to 44% | 0 to 29% | 0 to 29% | 0 to 29% | 0 to 29% | 0 to 29% | 0 to 29% |  |  |  |  |  |  |
| COC(=O)c1nc(-c2cc(F)c(C(F)(F)F)cc2F)ccc1Cl [F323, Methyl 3-chloro-6-(2,5-difluoro-4-(trifluoromethyl)phenyl)picolinate] |  |  |  |  |  |  |  | 0 to 29% | 95 to 100% | 30 to 44% | 0 to 29% | 30 to 44% | 85 to 94% | 0 to 29% | 0 to 29% | 0 to 29% | 45 to 59% | 75 to 84% | 85 to 94% | 75 to 84% | pest or weed control at 140 g/ha [21]: 0 to 29%; pest or weed control at 140 g/ha [22]: 45 to 59% |
| COC(=O)c1nc(-c2ccc3c(c2)C(F)(F)OC(F)(F)O3)ccc1Cl [F203, Methyl 3-chloro-6-(2,2,4,4-tetrafluoro-4H-benzo[d][1,3]dioxin-6-yl) picolinate] |  |  |  |  |  |  |  | 0 to 29% | 30 to 44% | 0 to 29% | 0 to 29% | 0 to 29% | 0 to 29% | 0 to 29% | 0 to 29% | 0 to 29% | 0 to 29% | 0 to 29% | 0 to 29% | 0 to 29% | pest or weed control at 140 g/ha [21]: 0 to 29%; pest or weed control at 140 g/ha [22]: 0 to 29% |
| C=Cc1ccc(-c2ccc(Cl)c(C(=O)OC)n2)c(Cl)c1 [F23, methyl 3-chloro-6-(2-chloro-4-vinylphenyl)picolinate] | 0 to 29% | 0 to 29% | 0 to 29% | 0 to 29% | 0 to 29% | 0 to 29% | 0 to 29% | 0 to 29% | 30 to 44% | 0 to 29% | 0 to 29% | 0 to 29% | 0 to 29% | 0 to 29% | 0 to 29% |  |  |  |  |  |  |
| COC(=O)c1nc(-c2ccc(C(F)(F)F)c(C)c2Cl)ccc1Cl [F136, methyl 3-chloro-6-(2-chloro-3-methyl-4-(trifluoromethyl)phenyl)picolinate] | 0 to 29% | 95 to 100% | 0 to 29% | 75 to 84% | 0 to 29% | 0 to 29% | 60 to 74% | 0 to 29% | 95 to 100% | 45 to 59% | 0 to 29% | 0 to 29% | 75 to 84% | 0 to 29% | 0 to 29% |  |  |  |  |  |  |
| O=C(O)c1nc(-c2ccc3[nH]ccc3c2)c(F)cc1Cl [F199, 3-Chloro-5-fluoro-6-(1H-indol-5-yl)picolinic acid] | 0 to 29% | 0 to 29% | 0 to 29% | 30 to 44% | 0 to 29% | 0 to 29% | 0 to 29% | 0 to 29% | 0 to 29% | 0 to 29% | 0 to 29% | 0 to 29% | 0 to 29% | 0 to 29% | 0 to 29% |  |  |  |  |  |  |
| COC(=O)c1nc(-c2cc3c(cc2Cl)OC(F)(F)O3)c(F)cc1Cl [F153, Methyl 3-chloro-6-(6-chloro-2,2-difluorobenzo[d] [1,3]dioxol-5-yl)-5-fluoropicolinate] | 60 to 74% | 95 to 100% | 60 to 74% | 85 to 94% | 85 to 94% | 0 to 29% | 85 to 94% | 75 to 84% | 95 to 100% | 85 to 94% | 0 to 29% | 85 to 94% | 95 to 100% | 0 to 29% | 30 to 44% |  |  |  |  |  |  |
| COC(=O)c1nc(-c2ccc(OC(F)(F)F)cc2OC)c(F)cc1Cl [F215, Methyl 3-chloro-5-fluoro-6-(2-methoxy-4-(trifluoromethoxy)phenyl)picolinate] |  |  |  |  |  |  |  | 85 to 94% | 95 to 100% | 75 to 84% | 0 to 29% | 95 to 100% | 95 to 100% | 30 to 44% | 45 to 59% | 0 to 29% | 85 to 94% | 45 to 59% | 85 to 94% | 85 to 94% | pest or weed control at 140 g/ha [21]: 60 to 74%; pest or weed control at 140 g/ha [22]: 0 to 29% |
| COC(=O)c1nc(-c2ccc3c(c2)C(F)(F)OC(F)(F)O3)c(Cl)cc1Cl [F202, Methyl 3,5-dichloro-6-(2,2,4,4-tetrafluoro-4H-benzo[d][1,3]dioxin-6-yl)picolinate] |  |  |  |  |  |  |  | 0 to 29% | 0 to 29% | 0 to 29% | 0 to 29% | 0 to 29% | 0 to 29% | 0 to 29% | 0 to 29% | 0 to 29% | 0 to 29% | 0 to 29% | 0 to 29% | 0 to 29% | pest or weed control at 140 g/ha [21]: 0 to 29%; pest or weed control at 140 g/ha [22]: 0 to 29% |
